# Reference: US20190225651A1, “COMPOUNDS FOR INDUCING TISSUE FORMATION AND USES THEREOF” (HISTIDE AG, priority 2015, published 2019)
# Ends that are not written are not given here.
# What was measured:
# hMSCs [1] = assay: Chondrocyte differentiation of hMSCs (Sox9, Aggrecan); format: cell-based, human; details: 96 hours of culture
# Experimental: (§1) The cells were first fixed for 20 min with 4% paraformaldehyde/PBS at 4° C. After fixation, the cells were permeabilized in PBS containing 1% Triton X-100 for 15 min. Runx2, Osterix, Stro-1, Vinculin, Phalloidin, Osteopontin, Sox2, Sox9 antibodies were visualized by treating the cells with 1% (v/v) specific monoclonal antibodies for 1 hour at 37° C. Then the samples were incubated with Alexa Fluor® 568 or 647 (F(ab′)2 fragment of IgG(H+L)) during 30 min at room temperature. The cell nuclei were counterstained in 20 ng/mL DAPI for 10 min at room temperature.
# Total RNA was extracted by using the RNeasy Mini Kit (Qiagen) and […] RNA was used for cDNA synthesis with AMV kit (Invitrogen®) according to the manufacturer' instructions. Semi-quantitative reverse transcriptase-polymerase chain reaction (RT-PCR) was performed with Taq DNA Polymerase (Invitrogen®) in a thermocycler (Bio-Rad®). The cDNA input was normalized to […] (HPRT). The PCR products were analyzed on 2% agarose gels. For the Aggrecan gene, the PCR bands were densitometrically quantified by using the BioCapt software (Vilber). Values were normalized to HPRT, and results were reported as relative gene expression.
# hMSCs were cultured on with and without GFR-binding compounds as defined herein (SEQ ID NO: 23 and 24). […]
# [2] = Stability of non-covalent peptide coating on apatite ceramics (FITC fluorescence); format: physicochemical; details: peptide bound to FITC, coated on apatite ceramics; 3, 7 or 10 days
# Experimental: (§2) Non-covalent modifications of the materials were performed in Air Atmosphere at room temperature. The non-covalent coating strategy consisted in using a mixture of inducing peptide (SEQ ID NO: 9; concentration of 1×10^−3M) with an apatite ceramics implant or a mixture of inducing peptide (SEQ ID NO: 10; concentration of 1×10^−3M) with a type-I collagen sponge. The non-covalently coated conventional materials were characterized by using fluorescent peptides (Here SEQ ID NO: 9 and 10 covalently bound to fluorescein isothiocyanate (FITC), FIG. 3). The results shown here in FIG. 3 were obtained from experiments performed with apatite ceramics and a type-I collagen sponge. […] Indeed, after 3, 7 or 10 days, the osteogenic peptides were still coated to the ceramics or the type-I collagen (FIG. 4). The biomaterial surface was characterized by X-ray photoelectron spectroscopy (Table 1). The X-ray photoelectron spectroscopy was performed as described in the Methods section.
# hMSCs [3] = assay: Alkaline phosphatase activity of hMSCs on peptide-coupled type-I collagen sponge; format: cell-based, human; details: 1 week of culture on type-I collagen sponge
# Excerpt: We observed an increase in the ALP activity after 1 week of culture on type-I collagen sponge coupled with GFR-binding compounds as defined herein (SEQ ID NO: 19) (FIG. 8b).
# osteoblast progenitors = assay: Osteogenic differentiation of osteoblast progenitors on peptide-coated materials (Osteopontin staining, Runx2 Q-PCR); format: cell-based
# Experimental: as §1
# (§3) Total RNA was extracted by using the RNeasy total RNA kit (Qiagen®) according to the manufacturer's instructions. Purified total RNA was used as a template in order to make cDNA by a reverse transcription reaction (Gibco BrI®) with random primers (Invitrogen®). The cDNA was then used as a template for a real-time PCR amplification in the presence of SYBR green reagents (Bio-Rad®) by using a thermocycler (iCycler, Biorad®). Data were analyzed with the iCycler IQ™® software and compared by the ΔΔCt method. Briefly, the mean Ct value of the target gene was normalized to its averaged Ct values of the housekeeping gene (HPRT) to give a ΔCt value, which was then normalized to a control sample to obtain a ΔΔCt value. The results were obtained from two series of experiments performed in a triplicate.
# The effect of these GFR-binding compounds as defined herein (SEQ ID NO: 19 and 20) on the differentiation of osteoblast progenitors was evaluated. These osteoblast progenitors were seeded onto the apatite ceramics or on type-I collagen sponge that were both coated with osteogenic peptides. […] This was seen from Osteopentin immunofluorescence staining after cell fixation as described in the Methods section (FIG. 7).
# An increase in the Runx2 gene expression after 24 hours of culture (FIG. 8a) was observed by using Quantitative Real Time Polymerase Chain Reaction as described in the Methods section.
# Neurons = assay: Neuron growth (dendrite growth, GAP43 Q-PCR); format: cell-based
# Experimental: as §3
# Neurons were cultured with and without GFR-binding compounds as defined herein (SEQ ID NO: 38). […] To further confirm this, the expression of the Growth Associated Protein 43 (GAP43) gene was verified for neuron cells cultured with neurogenic peptides (SEQ ID NO: 38).
# [4] = test system: Human umbilical-vein endothelial cells; assay: Angiogenesis, tube-like structure formation; format: cell-based; details: 18 hours of culture
# Experimental: Human umbilical-vein endothelial cells were cultured with and without GFR-binding compounds as defined herein (SEQ ID NO: 27).
# [5] = Stability of non-covalent peptide coating on type-I collagen sponge (FITC fluorescence); format: physicochemical; details: peptide bound to FITC, mixed with type-I collagen sponge; 3, 7 or 10 days
# Experimental: as §2
# Human epithelial cells = assay: Scratch test, collective cell migration; format: cell-based; details: 18 hours of culture
# Experimental: Human epithelial cells were cultured with or without GFR-binding compounds as defined herein (SEQ ID NO: 28). A usual scratch test was applied (Nat Protoc 2: 329-333) on a monolayer of these epithelial cells in culture (FIG. 12a). An increase in the cell migration velocity for cells cultured with peptides was observed after 18 hours of culture. The cells migrated collectively and the communication between cells was maintained (FIG. 12b). In fact, the injury has been closed rapidly for the cells cultured with GFR-binding compounds as defined herein.
# [6] = test system: Human umbilical-vein endothelial cells; assay: Endothelialization, CD31 adherens junctions; format: cell-based; details: 36 hours of culture
# Experimental: Human umbilical-vein endothelial cells were cultured with and without GFR-binding compounds as defined herein (SEQ ID NO: 26). An increase in the area of the adherent junctions (CD31) was observed after 36 hours of culture with GFR-binding compounds as defined herein (FIG. 10).
substance,measurement,setting,value
"SEQ ID NO: 23: cyclic GFR-binding compound inducing cartilage regeneration; sequence not printed (VGRKPELEPLPIVYYVGRKPGGGGG; also: cyclic, ring type and places not given here)",expression of the Sox9 protein,hMSCs [1],expression of the Sox9 protein was observed
"SEQ ID NO: 9: inducing peptide, cyclic GFR-binding compound of the sequence listing; mixed with apatite ceramics; sequence not printed (WWFWGGGSAISTLYLIGKTPGGGGGG; also: cyclic, ring type and places not given here)",release of peptides over time,[2],no significant release of peptides was observed over time
"SEQ ID NO: 19: osteogenic cyclic GFR-binding compound of the sequence listing; sequence not printed (WWFWGGGSAISTLYLDEYDKGGGGGG; also: cyclic, closure not given here)",ALP activity,hMSCs [3],increase
same,differentiation into mature osteoblasts,osteoblast progenitors; 48 hours on coated apatite ceramics or type-I collagen sponge,differentiated into mature osteoblasts
same,production of extracellular matrix proteins such as Osteopontin (OPN),osteoblast progenitors; versus native type-I collagen sponge or native apatite ceramics,produced extensive amounts of extracellular matrix proteins such as Osteopontin (OPN)
"SEQ ID NO: 38: neurogenic peptide, cyclic GFR-binding compound; sequence not printed (SPISILYIDAANNGGGGGG; also: cyclic, ring type and places not given here)",establishment of cell-cell contacts via dendrite growth,Neurons; 6 hours of culture,rapid establishment of cell-cell contacts via dendrite growth
same,expression of the Growth Associated Protein 43 (GAP43) gene,"Neurons; 48 hours of culture, Q-PCR",high level of expression
"SEQ ID NO: 27: vascular peptide, cyclic GFR-binding compound inducing angiogenesis; sequence not printed (SNITMQIMRIKPHQGGGGGG; also: cyclic, ring type and places not given here)",formation of tube-like structures,[4],formation of tube-like structures was observed
"SEQ ID NO: 10: inducing peptide, cyclic GFR-binding compound of the sequence listing; mixed with type-I collagen sponge; sequence not printed (GTPGPGGGSAISTLYLIGKTPGGGGGG; also: cyclic, closure not given here)",release of peptides over time,[5],no significant release of peptides was observed over time
"SEQ ID NO: 24: cyclic GFR-binding compound inducing cartilage regeneration; sequence not printed (EPLPIVYYVGRTPKVGGGGGG; also: cyclic, ring type and places not given here)",expression of the Sox9 protein,hMSCs [1],expression of the Sox9 protein was observed
"SEQ ID NO: 28: cyclic GFR-binding compound for wound healing; sequence not printed (EYVRKRPVQVRKIEYVRKGGGGGG; also: cyclic, ring type and places not given here)",cell migration velocity,Human epithelial cells,increase
"SEQ ID NO: 26: cyclic GFR-binding compound inducing endothelialization; sequence not printed (RSVKVAKVRIKPHQGQHGGGGGG; also: cyclic, ring type and places not given here)",area of the adherent junctions (CD31),[6],increase
